Experimental data as given in patent publication US20130253060A1, “Intramural Research Program of the National Institutes of Health, National Institute of Environmental Health Sciences (NIEHS)” (priority 2011, published 2013).
“Also recorded” adds a separate entry of the source. Read-outs that look alike come from different tables or passages of the source.

Experiments:
[1] = system: Male Swiss Webster mice given a lethal dose of acetaminophen (APAP); assay: Survival of mice given a lethal dose of APAP, with or without BPPA treatment; type: in vivo; conditions: for mortality: APAP alone
Procedure: Male Swiss Webster mice weighing between 25-30 g were obtained from Harlan Laboratories (Indianapolis, Ind.). Mice had unlimited access to rodent chow (Harlan Teklad Rat Chow No. 7001, Madison, Wis.) and water. The mice were housed over sawdust bedding free of any known chemical contaminants (Sani-chips; Harlan Teklad, Madison, Wis.) in air conditioned quarters (21±1° C.) with a 12 h photoperiod. All animal husbandry and handling conditions were as per the NIH Guide for Care and Use of Laboratory Animals. Research protocols were approved by the ULM Institutional Animal Care and Use Committee (IACUC).
(§1) Mice were given by intraperitoneal injection (i.p.) a lethal dose of APAP (600 mg/kg in 0.45 N NaCl, pH 8.2) or the vehicle alone. Treated mice were given a single injection of 20 mg/kg, i.p., BPPA, a sPLA2 inhibitor, after a set time interval (2, 4, and 8 hours after the dose of APAP). BPPA was purchased from a commercial source (Catalog No. 53319, Sigma Aldrich, St. Louis, Mo.). All the mice were observed six times on the first day and twice daily thereafter for 14 days for any mortality. […] Plasma was obtained by centrifugation of blood samples (1000 g for 20 min) for assessment of biochemical parameters of liver injury. The remaining plasma was quick-frozen in liquid nitrogen and stored at −80° C. until further analysis.

[2] = humans; cited from earlier work
[3] = mice; cited from earlier work
[4] = system: plasma alanine aminotransferase (ALT); assay: Plasma alanine aminotransferase (ALT) as biomarker of liver injury; type: in vivo, mice
Procedure: as §1
Plasma was separated by centrifugation of the heparinized blood. Plasma alanine aminotransferase (ALT) was measured as a biomarker of liver injury using a kit from Thermo DMA (Waltham, Mass.). The results were ascertained by light microscopic examination of liver sections stained with hematoxylin and eosin (H&E).

[5] = system: secretory phospholipase A2 (sPLA2); assay: sPLA2 activity in plasma; type: in vivo, mice
Procedure: as §1
sPLA2 activity in the plasma was measured using sPLA2 activity kit (Cayman Chemicals, Ann Arbor, Mich.) as per the manufacturer's instructions. sPLA2 activity in plasma was expressed as sPLA2 units/ml. One unit of sPLA2 hydrolyzes one μmole of substrate (diheptanoyl Thio-phosphatidylcholine) per min at 25° C. and is expressed as μmoles substrate hydrolyzed/min/ml.

[6] = system: rats receiving chlordecone (CD)+CCl4; assay: Survival after chlordecone + CCl4 combination with BPPA treatment; type: in vivo; conditions: BPPA 20 mg/kg 1 hour after CCl4 injection; rats on chlordecone; data not shown
Procedure: A combination of two chemicals, which are known to be nontoxic individually at very low levels, is known to be highly toxic when combined in mammals. One of these is a chlorinated pesticide known as KEPONE™, which is commonly known as chlordecone. The other is the organic solvent, carbon tetrachloride (CCl4). Either chemical will be toxic if given at a sufficient dose. For example, chlordecone, administered to older rats at 120 mg/kg causes central nervous system (CNS) toxicity such as tremors, convulsions and death. CCl4 injected or given orally at 4 ml/kg causes severe liver necrosis, liver failure and death. […] Likewise, exposing rats to a single dose of 100 μl/kg CCL4, i.p. led to the classic centrilobular injury by 3 hours, which escalated to about 4 fold injury in the liver by 12 hours. However, by 24 hours, the liver injury was repaired and no liver injury was observed. In contrast, if the same dose of CCl4 was given to rats maintained on dietary 10 ppm chlordecone for 15 days, on day 16, all rats died within 3 days after injecting CCl4, which is about a 67-fold amplification of the toxicity for CCl4 (Mehendale, 1994).
Using this combination of chlordecone and CCL4, BPPA (20 mg/kg) was injected in the rats 1 hour after the injection of CCl4, and 90% of the rats receiving the chlordecone (CD)+CCl4 survived (data not shown).

[7] = system: mice lethally poisoned with thioacetamide; assay: Rescue of mice lethally poisoned with thioacetamide by BPPA; type: in vivo; conditions: data not shown
Excerpt: In addition, I have shown that sPLA2 mediates the liver injury initiated by thioacetamide, another hepatotoxicant, by showing mice lethally poisoned with thioacetamide were rescued by inhibiting sPLA2 with BPPA (data not shown).

[8] = system: rats maintained on dietary 10 ppm chlordecone; conditions: CCl4 100 μl/kg i.p. on day 16 to rats on dietary 10 ppm chlordecone for 15 days; cited from earlier work
[9] = APAP alone 600 mg/kg i.p., measured on Day 2, vs control and vehicle
[10] = BPPA 20 mg/kg 2 hours after APAP 600 mg/kg, surviving mice, over 14 days
[11] = BPPA 20 mg/kg 4 hours after APAP 600 mg/kg

Compound `CC(=O)Nc1ccc(O)cc1` [APAP, Acetaminophen] has a mortality ([1]; single dose 600 mg/kg i.p., no further treatment) of 80%, a mortality ([1]; at 12 hours after injection) of 50% and a mortality ([1]; at 24 hours after injection) of 80%. The half-life [2] was 2.5 h, the half-life [3] was 1 h and the “plasma ALT enzymatic activity” value [4, 9] was “increased”. For the same compound, the “plasma sPLA2 enzymatic activity” value [5, 9] was “increased”.

For `O=C(O)CC[C@@H](Cc1ccc(OCc2ccccc2)cc1)NC(=O)CCCCCCc1ccccc1` [BPPA, 5-(4-Benzyloxyphenyl)-4S-(7-phenylheptanoylamino) pentanoic acid], the survival [6] was 90%, the “rescue from lethal thioacetamide poisoning” value [7] was “rescued” and the mortality ([7]; mice lethally dosed with thioacetamide, treated with BPPA) was “less mortality”. For the same compound, the survival ([1]; BPPA 20 mg/kg i.p. 4 hours after APAP 600 mg/kg i.p., observed 14 days) was 70%, the survival ([1]; BPPA 20 mg/kg i.p. 8 hours after APAP 600 mg/kg i.p., observed 14 days) was 60% and the cumulative mortality ([1]; at 14 days, BPPA 20 mg/kg 2 hours after acetaminophen) was 10%. For the same compound, the survival ([1]; inhibitor administered 2 to 8 hours after APAP 600 mg/kg) was 60%-80, the “plasma ALT activity” value [4, 10] was “down to the normal values; also recorded: decreased” and the “plasma ALT level” value [4, 11] was “decreased to about normal levels”. For the same compound, the “plasma sPLA2 activity” value [5, 10] was “down to the normal values; also recorded: decreased” and the “plasma sPLA2 level” value [5, 11] was “decreased to about normal levels”.

For `ClC(Cl)(Cl)Cl` [CCl4, carbon tetrachloride], the “amplification of the toxicity” value [8] is listed as roughly 67 fold.
